# Laboratory results taken from patent US20170246137A1, “SULFESTROL FOR TREATING CANCER” (CHAMAELEO PHARMA BVBA, priority 2012, published 2017).
# What was measured:
# [1] = tested on: MDA-MB-231; assay: In vitro direct cytotoxicity, Cell titer Blue viability, 72 hrs
# Method: (§1) Cells were maintained in vitro in RPMI 1640 containing 10% (v/v) heat inactivated FBS and 2 mM L-glutamine (growth media) at 37° C. in 5% CO2 and humidified conditions. Cells were harvested, washed, resuspended into growth medium and counted. The cells were re-suspended into assay media (RPMI 1640+1% (v/v) heat inactivated FBS+ and 2 mM L-glutamine) at 0.5-1×10^5 cells/ml (dependent upon cell type) and plated into 96-well assay plates (Corning, black-wall plates) in 50 ul/well aliquots.
# (§2) Plates were incubated overnight at 37° C. in 5% humidified CO2 prior to addition of the compounds. […] Stocks of all compounds were then serially diluted. Final concentrations to which cells were exposed were 300, 150, 75, 37.5, 18.75, 9.4, 4.7, 2.3, 1.2, 0.6 μM. Positive control was Cisplatin. Cisplatin was diluted in 1% FBS media to give a stock concentration of 1 mM. Cisplatin stock was then serially diluted. Final concentrations to which cells were exposed were 100, 50, 25, 12.5, 6.3, 3.1, 1.6, 0.8, 0.4, 0.2 μM.
# (§3) Plates were incubated for 72 hrs at 37° C. in 5% humidified CO2 after addition of the compounds. Viability of the cells was assessed with the Cell titer Blue™ (Promega) assay. 10 μl of Cell titer Blue™ reagents was added to each test/blank well. Plates were incubated 3 h at 37° C. in 5% humidified CO2 prior to analysis. Fluorescence was measured with a Flex II station plate reader. Excitation wavelength was 570 nm, emission wave length was 600 nm, cut off was 590 nm. Raw data was processed by GraphPad Prism to calculate mean, standard deviation and IC50 values.
# [2] = tested on: MCF7; assay: as above
# Method: as §1, §2, §3
# [3] = tested on: MDA-MB-231 Dlux; assay: Orthotopic spontaneous metastasis breast model, whole body bioluminescence; format: in vivo, female MF-1 nude mice; conditions: for total flux, whole body bioluminescence: mono-Sulfestrol 60 mg/kg, di-Sulfestrol 80 mg/kg orally once a day
# Method: Female MF-1 nude mice (HsdOla:MF1-Foxn1nu, Harlan, UK) were divided into 3 groups of each 8 mice (n=8):
# The mice were 5-6 weeks old at the start of the study and were maintained in sterile isolators within a barriered unit illuminated by fluorescent lights set to give a 12 hour light-dark cycle (on 07.00, off 19.00). The room was air-conditioned to maintain an air temperature range of 23±2° C. Sterile irradiated 2019 rodent diet (Harlan Teklad UK, product code Q219DJ1R2) and autoclaved water were offered ad libitum.
# The MDA-MB-231 Dlux cells were maintained in vitro in RPMI containing 2 mM L-Glut and (Life Technologies, UK) and 10% (v/v) heat-inactivated foetal bovine serum (Sigma, Poole, UK) at 37° C. in 5% CO2 and humidified conditions. Cells were treated with Zeocin once a week at 0.4 mg/mL.
# On the day of initiation cells were harvested from semi-confluent monolayers with 0.05% Trypsin-EDTA, washed twice in the culture medium and counted. Cells with viability of >90% were re-suspended, for in vivo administration, in 1:1 PBS:Matrigel at 2×10^6 cells/0.1 mL. Prior to injection, the cell suspension was homogenized and 0.1 mL of cell suspension was drawn into a 1 mL syringe. The cell suspension was then injected orthotopically into the lower left-side 2nd mammary fat pad of each mouse under anaesthesia (Medetomidine/Ketamine).
# On day 7 after initiation and every six days thereafter, the mice were injected (s.c.) with 150 mg/kg D-Luciferin. 10 minutes following administration of D-Luciferin mice were anaesthetised and 15 minutes after administration they were placed into an imaging chamber (Spectrum CT) and imaged for luminescence (ventral view; whole body and shielding of the primary tumor). Images were captured and processed by Living Image 4.3.1 software (Caliper LS, US.).
# On day 7 after initiation mice were assigned to groups such that there was a uniform mean bioluminescent signal between the groups.
# [4] = Metabolites in plasma after oral and intravenous administration, LC-MS/MS
# Method: Metabolites were identified after oral and intravenous administration of the compounds.
# Each group consisted of three rats, giving a total of 12 animals. Compounds were dosed at 10 mg/kg for both oral and intravenous administration. A 0.9% saline solution was used as vehicle for oral and intravenous administration.
# Prior to intravenous administration, the solution was filtered through a 0.22 μM filter. Oral dosing was performed using a oral gavage. Tail vein injection was used for intravenous administration.
# At 0.5, 1, 2, 4, 6 and 8 hrs post administration, 0.25 ml blood was drawn from the animals and immediately transferred to prechilled microcentrifuge tubes containing 4 μl of K2-EDTA to prevent coagulation. Plasma was obtained by centrifugation of the plasma and stored at −70° C. until analysis. Plasma drawn from each individual rat was pooled according to the following schedule:
# The pooled samples were analyzed using LC-MS/MS and the relative percentage of each metabolite in the pooled sample was measured on the basis of the mass spectrometric peak areas of the parent and its metabolites in the plasma.
# [5] = tested on: LNCaP; assay: In vitro direct cytotoxicity, Cell titer Blue viability, 72 hrs; format: cell-based
# Method: (§4) Cells were harvested, washed, re-suspended into growth medium and counted.
# (§5) Stocks of all compounds were then serially diluted. […] Positive control was Taxotere. Taxotere was diluted in 100% DSMO to give a stock concentration of 1 mM. Stock was serially diluted. Final concentrations to which cells were exposed were 1000, 333.3, 111.1, 37.0, 12.3, 4.1, 1.4, 0.5, and 0.2 nM.
# [6] = tested on: DU-145; assay: as above; format: cell-based
# Method: as §4, §5
# [7] = tested on: platelet-rich plasma (PRP); assay: Platelet-aggregation-inducing effects in platelet-rich plasma, absorbance 630 nm; format: cell-based; conditions: 7 minutes, human PRP
# Method: Blood necessary to generate PRP was obtained from 4 healthy human volunteers. 100 ml of fresh venous blood from each donor was isolated directly into tubes containing 1/10th volume of the anti-coagulant Tri-Sodium Citrate (3.2% w/v). The blood and anti-coagulant were immediately mixed and the final concentration of Tri-Sodium Citrate was 0.0106 M.
# PRP was prepared by centrifugation of anti-coagulated blood at 180 g for 10 minutes at room temperature. The cloudy yellow supernatant containing the platelets was removed and placed into a clean polypropylene tube. Platelet-poor plasma (PPP) was prepared by centrifuging the remaining sample at 1,200 g for 20 minutes at room temperature. The PRP was adjusted to a suitable platelet count and absorbance at 630 nm by addition of PPP.
# All three compounds were dissolved in 100% DMSO to give a stock concentration of 60 mM. […] […] 100 nM gamma thrombin (Cambridge bioscience) was used as control for platelet aggregation. 90 μl aliquots of PRP were added to 96 wells plates. A baseline absorbance reading was taken at 630 nm. 5 μl of the compounds and gamma thrombin control was added to the appropriate PRP.
# The plates were incubated at room temperature for 7 minutes on a plate shaker with continuous shaking. A second A630 nm reading was made after the 7 minutes incubation to measure any platelet aggregation induced by the compounds.
substance,measurement,setting,value
4-(4-(4-oxidophenyl)hex-3-en-3-yl)phenyl sulfate [Mono-Sulfestrol],cytotoxicity in vitro (in words),[1]; MDA-MB231,cytotoxic
same,IC50,"[1]; read-out: IC50 value, MDA-MB-231, triple negative breast cancer cell line, 72 hrs",185 µM
same,cytotoxicity in vitro (in words),[2]; MCF7,cytotoxic
same,IC50,"[2]; read-out: IC50 value, MCF7, hormone-dependent breast cancer cell line, 72 hrs",85 µM
same,"total flux, whole body bioluminescence",[3]; Day 7 (before start of treatment),1.72 10^9 photons/second
same,"total flux, whole body bioluminescence",[3]; Day 13,5.89 10^9 photons/second
same,"total flux, whole body bioluminescence",[3]; Day 19,9.22 10^9 photons/second
same,effect on tumor progression (in words),"[3]; oral, MDA-MB-231 Dlux in mice",tumor progression inhibiting effect
same,metabolic fate in rat plasma (in words),[4]; 10 mg/kg oral and intravenous,undergoes minimal metabolic processing
same,Relative Abundance,[4]; pooled rat plasma after Mono-Sulfestrol 10 mg/kg IV,IV: 86.99%
same,Relative Abundance,[4]; pooled rat plasma after Mono-Sulfestrol 10 mg/kg PO,PO: 91.91%
same,cytotoxicity in vitro (in words),[5],inactive
same,IC50 value,"[5]; hormone-dependent prostate cancer cell line, 72 hrs",Not active
same,cytotoxicity in vitro (in words),[6]; DU-145,inactive
same,IC50 value,"[6]; DU-145, hormone-independent prostate cancer cell line, 72 hrs",Not active
same,Absorbance (630 nm),"[7]; 2.3 μM, high absorbance = low aggregation",0.274 ± 0.034
same,Absorbance (630 nm),[7]; 4.7 μM,0.277 ± 0.029
same,Absorbance (630 nm),[7]; 9.4 μM,0.272 ± 0.029
same,Absorbance (630 nm),[7]; 18.75 μM,0.275 ± 0.029
same,Absorbance (630 nm),[7]; 37.5 μM,0.278 ± 0.030
same,Absorbance (630 nm),[7]; 75 μM,0.281 ± 0.031
same,Absorbance (630 nm),[7]; 150 μM,0.283 ± 0.036
